The results in this text go back to ChEMBL document CHEMBL1131741, “Design of scytalone dehydratase inhibitors as rice blast fungicides: (N-phenoxypropyl)-carboxamides” (Bioorg Med Chem Lett, 1999).

In brackets after ≈: the same amount, converted by molar mass.

One experiment concerns rice. Put plainly: Concentration that affords 90% control of blast disease on rice plants by multiple rate foliar rice blast assay. Type of experiment: functional.
The target in experiment [1] is T1, Scytalone dehydratase (Magnaporthe oryzae (strain 70-15 / FGSC 8958) (Rice blast fungus)(Pyricularia oryzae), UniProt P56221).
T1 sequence (P56221 whole entry): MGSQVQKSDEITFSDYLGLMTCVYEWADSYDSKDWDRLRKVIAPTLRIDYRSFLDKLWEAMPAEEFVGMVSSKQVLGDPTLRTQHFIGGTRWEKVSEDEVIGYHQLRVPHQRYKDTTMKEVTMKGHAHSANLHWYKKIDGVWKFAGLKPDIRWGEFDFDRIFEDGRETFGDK

Experiment [2] deals with T1, Scytalone dehydratase. The source holds these as a separate data set.

For `C[C@H](COc1cccc(F)c1F)NC(=O)[C@@H](C#N)C(C)(C)C`, the ED90 with rice was determined as 25 mg/L (≈ 80.6 µM). At Scytalone dehydratase [1], the inhibition constant Ki came out at 0.95 nM. For the same compound, at Scytalone dehydratase [2], the “Adjusted Ki” value was found to be 0.95 nM.
As to `C[C@@H](COc1cc(F)ccc1F)NC(=O)[C@@H](C#N)C(C)(C)C`, the ED90 in the experiment on rice was greater than 200 mg/L. For the same compound, on Scytalone dehydratase [1], the inhibitory constant (Ki) is 7.7 nM. Besides, at Scytalone dehydratase [2], the “Adjusted Ki” value is given as 7.7 nM.
`C[C@H](COc1cc(F)ccc1F)NC(=O)C(C#N)C(C)(C)C` (stereo not given in full) had an ED90 in the experiment on rice of 6.2 mg/L (≈ 20 µM). Also, affinity at Scytalone dehydratase [1] was put at a Ki of 0.042 nM. The “Adjusted Ki” value at Scytalone dehydratase [2] turned out to be 0.021 nM.
In the experiment on rice, `CC[C@]1(C(=O)NCCOc2ccccc2)C(C)C1(Cl)Cl` (stereo not given in full) had an ED90 of 200 mg/L (≈ 632 µM). Moreover, the inhibition constant Ki on Scytalone dehydratase [1] was 7.5 nM. Besides, the “Adjusted Ki” value on Scytalone dehydratase [2] is given as 3.7 nM.
For `CC[C@]1(C(=O)N[C@H](C)COc2cc(F)ccc2F)C(C)C1(Cl)Cl` (stereo not given in full), the ED90 in the experiment with rice stood at 6 mg/L (≈ 16.4 µM). Also, at Scytalone dehydratase [1], the Ki amounted to 0.085 nM. Moreover, on Scytalone dehydratase [2], the “Adjusted Ki” value is listed as 0.042 nM.
Taken in the same sequence, the figures for `CC[C@]1(C(=O)NC(C)COc2ccccc2)C(C)C1(Cl)Cl` (stereo not given in full) were 50 mg/L (≈ 151 µM), 0.38 nM and 0.094 nM.
As to `CC(COc1ccccc1)NC(=O)C(C#N)C(C)(C)C` (stereo not given), the ED90 in the experiment with rice was 200 mg/L (≈ 729 µM). For the same compound, the inhibitory constant (Ki) at Scytalone dehydratase [1] was determined as 2.8 nM. Also, the “Adjusted Ki” value on Scytalone dehydratase [2] is recorded as 0.7 nM.
The like results for `C[C@H](COc1cc(F)ccc1F)NC(=O)[C@H](C#N)C(C)(C)C` were, in that order, 6.2 mg/L (≈ 20 µM), 0.73 nM and 0.73 nM.
In the experiment on rice, `CC[C@]1(C(=O)N[C@H](C)COc2cccc(F)c2F)C(C)C1(Cl)Cl` (stereo not given in full) yielded an ED90 of 100 mg/L (≈ 273 µM). The same compound showed a Ki on Scytalone dehydratase [1] of 2.2 nM. For the same compound, at Scytalone dehydratase [2], the “Adjusted Ki” value came out at 2.2 nM.
Take `CC[C@]1(C(=O)N[C@H](C)COc2ccc(F)cc2)C(C)C1(Cl)Cl` (stereo not given in full): the ED90 with rice worked out at 30 mg/L (≈ 86.1 µM). At Scytalone dehydratase [1], this compound had a Ki of 0.22 nM. Further, the “Adjusted Ki” value at Scytalone dehydratase [2] was determined as 0.11 nM.
Taken in the same sequence, the figures for `C[C@H](COc1ccc(F)cc1)NC(=O)C(C#N)C(C)(C)C` (stereo not given in full) were 100 mg/L (≈ 342 µM), 1.7 nM and 0.83 nM.
Taken in the same sequence, the figures for `CC[C@]1(C(=O)NC(C)CCc2ccccc2)C(C)C1(Cl)Cl` (stereo not given in full) were 30 mg/L (≈ 91.4 µM), 0.83 nM and 0.21 nM.
Take `C[C@H](COc1ccccc1)NC(=O)[C@@H](C#N)C(C)(C)C` (stereo in doubt; 6f) [listing 1 of 2 here]: the Ki on Scytalone dehydratase [1] came to 0.58 nM. For the same compound, the “Adjusted Ki” value at Scytalone dehydratase [2] came out at 0.58 nM.
Regarding `CC(CCc1ccccc1)NC(=O)C(C#N)C(C)(C)C` (stereo not given), in the experiment with rice, the ED90 was greater than 200 mg/L. The inhibition constant (Ki) on Scytalone dehydratase [1] is 7.2 nM. Moreover, the “Adjusted Ki” value on Scytalone dehydratase [2] was determined as 1.8 nM.
Taken in the same sequence, the figures for `C[C@H](COc1ccccc1)NC(=O)[C@H](C#N)C(C)(C)C` were greater than 200 mg/L, 66 nM and 33 nM.
Regarding `C[C@H](COc1ccccc1)NC(=O)[C@@H](C#N)C(C)(C)C` (stereo in doubt; 6e) [listing 1 of 2 here], the Ki on Scytalone dehydratase [1] was 1.3 nM. In addition, at Scytalone dehydratase [2], the “Adjusted Ki” value worked out at 0.66 nM.
Regarding `C[C@H](COc1cc(F)ccc1F)NC(=O)[C@@H](C#N)C(C)(C)C`, the ED90 with rice stood at 0.8 mg/L (≈ 2.58 µM). The compound also gave a Ki on Scytalone dehydratase [1] of 0.02 nM. Besides, the “Adjusted Ki” value on Scytalone dehydratase [2] is listed as 0.02 nM.
In turn, `CC(COc1ccccc1F)NC(=O)C(C#N)C(C)(C)C` (stereo not given) came in with an ED90 in the experiment with rice of 50 mg/L (≈ 171 µM). On Scytalone dehydratase [1], the affinity corresponds to a Ki of 0.24 nM. In addition, the “Adjusted Ki” value on Scytalone dehydratase [2] is recorded as 0.059 nM.
Compound `C[C@@H](COc1cc(F)ccc1F)NC(=O)[C@H](C#N)C(C)(C)C` registered an ED90 in the experiment with rice greater than 200 mg/L. In addition, at Scytalone dehydratase [1], the Ki was found to be 97 nM. Also, on Scytalone dehydratase [2], the “Adjusted Ki” value is reported as 97 nM.
As for `CC[C@]1(C(=O)N[C@@H](C)COc2cc(F)ccc2F)C(C)C1(Cl)Cl` (stereo not given in full), the ED90 with rice came out at 100 mg/L (≈ 273 µM). The same compound came in with an inhibition constant (Ki) on Scytalone dehydratase [1] of 33 nM. Moreover, the “Adjusted Ki” value at Scytalone dehydratase [2] came out at 16 nM.
The like results for `CC(COc1cccc(F)c1)NC(=O)[C@@H](C#N)C(C)(C)C` (stereo not given in full) were, in that order, 25 mg/L (≈ 85.5 µM), 0.46 nM and 0.23 nM.
The like results for `CC[C@]1(C(=O)N[C@H](C)COc2cccc(F)c2)C(C)C1(Cl)Cl` (stereo not given in full) were, in that order, 30 mg/L (≈ 86.1 µM), 0.11 nM and 0.057 nM.
In the experiment with rice, `C[C@H](COc1ccccc1F)NC(=O)[C@@H](C#N)C(C)(C)C` showed an ED90 of 25 mg/L (≈ 85.5 µM). The same compound yielded a Ki on Scytalone dehydratase [1] of 0.08 nM. For the same compound, the “Adjusted Ki” value on Scytalone dehydratase [2] came out at 0.08 nM.
Regarding `C[C@H](COc1ccccc1)NC(=O)[C@@H](C#N)C(C)(C)C` (stereo in doubt; 6f) [listing 2 of 2 here], the ED90 in the experiment on rice stood at 25 mg/L (≈ 91.1 µM).
As for `CC[C@]1(C(=O)N[C@H](C)COc2ccccc2)C(C)C1(Cl)Cl` (stereo not given in full), the ED90 in the experiment with rice came out at 30 mg/L (≈ 90.8 µM). Further, the affinity at Scytalone dehydratase [1], expressed as Ki, was 0.17 nM. Besides, the “Adjusted Ki” value at Scytalone dehydratase [2] is on record as 0.0835 nM.
With `C[C@H](COc1ccccc1)NC(=O)[C@@H](C#N)C(C)(C)C` (stereo in doubt; 6e) [listing 2 of 2 here], the ED90 with rice came to 100 mg/L (≈ 364 µM).
Compound `CC[C@]1(C(=O)N[C@H](C)COc2ccccc2F)C(C)C1(Cl)Cl` (stereo not given in full) gave an ED90 in the experiment with rice of 50 mg/L (≈ 144 µM). Besides, the Ki on Scytalone dehydratase [1] was found to be 0.37 nM. For the same compound, the “Adjusted Ki” value at Scytalone dehydratase [2] stood at 0.19 nM.
The like results for `CC(C)(C)C(C#N)C(=O)NCCCc1ccccc1` (stereo not given) were, in that order, 200 mg/L (≈ 774 µM), 13.6 nM and 6.8 nM.
As to `CC[C@]1(C(=O)NCCCc2ccccc2)C(C)C1(Cl)Cl` (stereo not given in full), the ED90 in the experiment with rice is 30 mg/L (≈ 95.5 µM). Moreover, at Scytalone dehydratase [1], affinity was put at a Ki of 1.9 nM. The “Adjusted Ki” value at Scytalone dehydratase [2] is on record as 0.96 nM.
At Scytalone dehydratase [1], `C[C@H](COc1ccccc1)NC(=O)c1cc(F)ccc1O` came in with a Ki of 0.44 nM.
As for `C[C@H](COc1cccc(F)c1)NC(=O)[C@@H](C#N)C(C)(C)C`, the ED90 in the experiment on rice was found to be 25 mg/L (≈ 85.5 µM). The Ki at Scytalone dehydratase [1] worked out at 0.24 nM. The “Adjusted Ki” value at Scytalone dehydratase [2] was 0.24 nM.
